Test results published in patent US6643591B1, “Use of computational and experimental data to model organic compound reactivity in cytochrome P450 mediated reactions and to optimize the design of pharmaceuticals” (University of Pittsburgh, priority 1998, dated 2003).
Where “and” joins values, the source holds several entries; their conditions need not be identical. Identical values can stand only once. Like-named read-outs stand apart in the source and are kept apart here. Marks after values point to notes of the source that are not given here.

Key:
CYP2E1 = CYP2E1 (Homo sapiens, UniProt P05181)
CYP [1] = conditions: cited from earlier work
CYP2B1 = biological target: T1, CYP2B1 (Rattus norvegicus, UniProt P00176)
T1 sequence (P00176 1-491): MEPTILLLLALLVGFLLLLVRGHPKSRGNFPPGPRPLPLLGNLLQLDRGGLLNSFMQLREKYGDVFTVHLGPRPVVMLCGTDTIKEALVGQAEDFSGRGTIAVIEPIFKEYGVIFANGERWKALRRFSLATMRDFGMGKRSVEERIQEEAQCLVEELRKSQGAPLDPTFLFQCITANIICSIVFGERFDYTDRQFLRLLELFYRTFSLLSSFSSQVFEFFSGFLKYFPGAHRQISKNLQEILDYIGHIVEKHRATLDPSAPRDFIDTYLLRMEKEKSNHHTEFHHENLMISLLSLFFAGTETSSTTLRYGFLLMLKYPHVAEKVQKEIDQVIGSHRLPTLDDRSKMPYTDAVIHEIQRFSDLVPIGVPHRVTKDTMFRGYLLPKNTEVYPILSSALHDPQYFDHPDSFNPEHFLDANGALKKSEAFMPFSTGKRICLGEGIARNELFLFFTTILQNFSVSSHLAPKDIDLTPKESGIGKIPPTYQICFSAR

CYP2B6 = biological target: T2, CYP2B6 (Homo sapiens, UniProt P20813)
T2 sequence (P20813 1-491): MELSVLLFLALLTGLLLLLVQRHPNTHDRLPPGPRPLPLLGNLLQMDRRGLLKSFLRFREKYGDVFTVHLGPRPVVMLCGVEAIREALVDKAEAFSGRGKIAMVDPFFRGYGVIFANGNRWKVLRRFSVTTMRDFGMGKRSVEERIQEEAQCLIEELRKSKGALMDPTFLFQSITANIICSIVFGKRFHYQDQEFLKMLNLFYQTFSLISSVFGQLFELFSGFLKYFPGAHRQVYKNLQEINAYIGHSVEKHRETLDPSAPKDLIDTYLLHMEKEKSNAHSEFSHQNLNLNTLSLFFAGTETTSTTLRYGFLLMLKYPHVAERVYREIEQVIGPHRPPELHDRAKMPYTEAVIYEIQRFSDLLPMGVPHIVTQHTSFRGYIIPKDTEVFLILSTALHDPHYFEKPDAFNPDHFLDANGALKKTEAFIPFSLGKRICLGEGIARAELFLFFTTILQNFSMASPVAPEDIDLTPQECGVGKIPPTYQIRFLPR

CYP2C9 = CYP2C9 (Homo sapiens, UniProt P11712)
CYP1A2 [2] = biological target: T3, CYP1A2 (Homo sapiens, UniProt P05177)
T3 sequence (P05177 1-516): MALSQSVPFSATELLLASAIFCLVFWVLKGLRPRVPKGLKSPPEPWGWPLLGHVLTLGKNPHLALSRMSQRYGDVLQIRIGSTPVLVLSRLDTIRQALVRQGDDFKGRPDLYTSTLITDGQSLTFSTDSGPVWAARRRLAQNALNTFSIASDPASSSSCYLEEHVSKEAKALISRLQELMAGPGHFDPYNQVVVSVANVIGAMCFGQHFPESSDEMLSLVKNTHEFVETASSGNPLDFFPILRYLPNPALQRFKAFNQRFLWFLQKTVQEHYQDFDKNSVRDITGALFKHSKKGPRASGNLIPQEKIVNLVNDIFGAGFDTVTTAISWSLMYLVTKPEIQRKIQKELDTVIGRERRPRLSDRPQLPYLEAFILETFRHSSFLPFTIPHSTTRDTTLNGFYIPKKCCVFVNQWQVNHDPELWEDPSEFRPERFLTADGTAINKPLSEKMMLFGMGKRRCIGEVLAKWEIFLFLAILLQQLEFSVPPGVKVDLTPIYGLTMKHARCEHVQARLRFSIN

CYP4B1 = CYP4B1 (Oryctolagus cuniculus, UniProt P15128)
P450cam = biological target: T4, P450cam (Pseudomonas putida, UniProt P00183); experiment: Intramolecular isotope effects with purified P450cam; format: in vitro ADME, bacterial; conditions: benzylic hydroxylation, -CH2D (d1) substrate
T4 construct: made in house
Description: For the intramolecular isotope effect experiments herein, a substrate is chosen that contains at least two symmetrical sites, with at least one site, but not all, isotopically labeled. A single concentration of substrate is incubated with enzyme, and the ratio of labeled to unlabeled compound in the isotopic mixture of products (or the corresponding rates of formation of products) are used to calculate a KIE.
Construction of expression plasmids for P450cam, Pd, and PdR as well as protein expression and purification have been described previously (Shimoji et al. (1998) Biochemistry 37, 8848-52).
Enzyme incubations with monodeuterated toluenes and p-xylene-α-^2H1-α′-^2H1 were performed in triplicate at a single substrate concentration of 0.25 mM. […] The kinetic parameters for metabolism of the substituted toluenes were determined by GC-MS analysis of the M-(dimethylsilyl) derivative of the product benzyl alcohols (see below).

CYP [3] = experiment: Experimental product ratios for aromatic oxidation
From the text: These equations may be solved with the data in Table 4, which provides experimental data for aromatic oxidation reactions with a number of substrates.
Experimental metabolite ratios may also be used to parameterize the aromatic oxidation reaction in a theoretical model for CYP reactions. As with hydrogen atom abstraction discussed in the previous Examples, experimental ratios of aromatic oxidation to an alternate position may be determined using various CYP enzymes. These substrates were chosen based on their small size, the presence of an alternate position for metabolism, and their hydrophobicity.
In order for the substrates to be useful, the average of the rotation rates in the active sites should be rapid. […] Several human expressed CYP enzymes were used in these studies, including CYP1A1, 1A2, 2A6, 2B6, 2C8, 2C9, 2D6, 2E1, 3A4, and 3A5. The use of multiple enzymes insures that a reasonable average of any orientation preferences within the active site (see FIG. 1).

CYP1A2 [4] = conditions: O-deethylation favored; cited from earlier work
CYP [5] = experiment: Activation energy differences from experimental regioselectivity of substrates in rapid equilibrium; format: in vitro ADME; design: unit not given here; conditions: difference in activation energy calculated by the experimental regioselectivity
From the text: Five substrates shown to undergo rapid equilibrium between positions of metabolism have been used to prepare data for regression and then correlation with Eq. 1. The differences in activation energy calculated by the experimental regioselectivity of the substrates, along with the differences in AM1 activation enthalpies, are given in Table 1. Regression of the experimental data gives a slope correction for AM1 activation energies of 0.75±0.20.

T4 sequence (P00183 2-415): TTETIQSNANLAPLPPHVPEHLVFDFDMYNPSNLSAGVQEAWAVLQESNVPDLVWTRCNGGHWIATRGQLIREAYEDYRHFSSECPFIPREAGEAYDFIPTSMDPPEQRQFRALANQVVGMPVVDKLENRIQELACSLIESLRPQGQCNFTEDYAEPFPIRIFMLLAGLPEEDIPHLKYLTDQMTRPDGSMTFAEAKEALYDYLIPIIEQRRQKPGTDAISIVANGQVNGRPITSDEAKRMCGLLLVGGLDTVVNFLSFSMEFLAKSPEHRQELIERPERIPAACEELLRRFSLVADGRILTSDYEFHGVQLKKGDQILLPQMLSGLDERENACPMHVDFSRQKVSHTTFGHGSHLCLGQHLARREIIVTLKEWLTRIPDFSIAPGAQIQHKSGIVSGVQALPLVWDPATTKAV
CYP4B1, sequence (P15128 whole entry): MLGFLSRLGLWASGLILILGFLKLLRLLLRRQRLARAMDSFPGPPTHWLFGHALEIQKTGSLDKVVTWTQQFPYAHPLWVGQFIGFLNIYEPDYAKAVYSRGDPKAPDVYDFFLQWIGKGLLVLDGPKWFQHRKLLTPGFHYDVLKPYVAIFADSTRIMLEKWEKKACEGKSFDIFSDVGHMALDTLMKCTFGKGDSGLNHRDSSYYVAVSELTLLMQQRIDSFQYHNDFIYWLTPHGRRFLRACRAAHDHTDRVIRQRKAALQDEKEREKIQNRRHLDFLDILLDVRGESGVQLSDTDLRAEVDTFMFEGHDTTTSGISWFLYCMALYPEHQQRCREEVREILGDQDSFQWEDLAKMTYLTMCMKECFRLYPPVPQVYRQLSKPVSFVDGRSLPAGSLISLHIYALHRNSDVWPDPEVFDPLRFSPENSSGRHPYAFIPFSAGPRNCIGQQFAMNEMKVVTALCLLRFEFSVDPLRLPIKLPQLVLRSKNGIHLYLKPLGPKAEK
CYP2C9, sequence (P11712 whole entry): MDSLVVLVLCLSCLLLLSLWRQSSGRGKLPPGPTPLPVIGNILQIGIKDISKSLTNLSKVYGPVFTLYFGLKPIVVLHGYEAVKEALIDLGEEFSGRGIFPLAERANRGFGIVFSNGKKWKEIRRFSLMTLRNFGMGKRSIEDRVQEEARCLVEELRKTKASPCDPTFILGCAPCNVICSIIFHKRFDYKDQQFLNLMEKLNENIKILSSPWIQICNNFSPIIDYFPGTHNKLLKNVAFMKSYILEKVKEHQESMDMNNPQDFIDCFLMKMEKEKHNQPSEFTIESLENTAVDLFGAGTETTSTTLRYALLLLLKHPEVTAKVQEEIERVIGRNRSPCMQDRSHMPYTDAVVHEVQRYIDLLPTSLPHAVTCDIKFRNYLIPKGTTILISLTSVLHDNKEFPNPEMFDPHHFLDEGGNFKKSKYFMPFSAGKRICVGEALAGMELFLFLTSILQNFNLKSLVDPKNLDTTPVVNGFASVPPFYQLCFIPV
CYP2E1, sequence (P05181 whole entry): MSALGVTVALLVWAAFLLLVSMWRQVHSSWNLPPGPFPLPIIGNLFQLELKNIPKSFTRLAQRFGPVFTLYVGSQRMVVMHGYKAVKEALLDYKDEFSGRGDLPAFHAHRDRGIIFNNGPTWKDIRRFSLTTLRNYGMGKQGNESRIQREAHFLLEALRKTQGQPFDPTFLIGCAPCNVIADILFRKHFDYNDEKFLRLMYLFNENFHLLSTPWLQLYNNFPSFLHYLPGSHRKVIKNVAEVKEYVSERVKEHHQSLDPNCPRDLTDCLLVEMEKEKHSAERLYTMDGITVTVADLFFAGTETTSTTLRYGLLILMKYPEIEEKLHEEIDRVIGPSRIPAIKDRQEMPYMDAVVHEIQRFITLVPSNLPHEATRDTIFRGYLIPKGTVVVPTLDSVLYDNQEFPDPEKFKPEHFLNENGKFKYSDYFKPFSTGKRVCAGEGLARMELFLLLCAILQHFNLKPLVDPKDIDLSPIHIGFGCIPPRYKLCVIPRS

Cc1ccc(C)cc1 [CH3, p-xylene]
Intermolecular Competitive ^D(V/K) (CYP2E1; pH 7.4): 1.18 ± 0.03 | Intermolecular Noncompetitive ^D(V/K) (CYP2E1; pH 7.4): 1.19 ± 0.01 | Intermolecular Noncompetitive ^DV (CYP2E1; pH 7.4): 1.05 ± 0.03 | Intramolecular KIE (kH/kD) (CYP2E1; pH 7.4): 5.45 ± 0.05 | Benzylic hydroxylation, share of total oxidation / metabolism (CYP [1]; depending on the source of CYP): ~95%

[2H]C([2H])([2H])c1ccc(CCl)cc1 [α-Chloromethyl-p-xylene-α′-^2H3]
nmol TP (CYP2B1): 21.3 nmol | nmol p-Alc (CYP2B1): 1.3* nmol | nmol p-Ald + TolA (CYP2B1): 20.0* nmol | nmol TP (CYP2B6): 14* nmol | nmol p-Alc (CYP2B6): 1.82* nmol | nmol p-Ald + TolA (CYP2B6): 12* nmol | nmol TP (CYP2C9): 1.8* nmol | nmol p-Alc (CYP2C9): 0.10* nmol | nmol p-Ald + TolA (CYP2C9): 1.7* nmol | nmol TP (CYP2E1): 31 nmol | nmol p-Alc (CYP2E1): 0.78* nmol | nmol p-Ald + TolA (CYP2E1): 30 nmol | nmol TP (CYP1A2 [2]): 47 nmol | nmol p-Alc (CYP1A2 [2]): 1.3* nmol | nmol p-Ald + TolA (CYP1A2 [2]): 46 nmol | nmol TP (CYP4B1): 17.0* nmol | nmol p-Alc (CYP4B1): 15.2* nmol | nmol p-Ald + TolA (CYP4B1): 1.87* nmol

[2H]Cc1ccc(C[2H])cc1 [CH2D, p-Xylene-α-^2H1-α′-^2H1]
Intramolecular KIE (kH/kD) (CYP2B1): 6.23 | Intramolecular KIE (kH/kD) (P450cam): 6.0 | Intramolecular KIE (kH/kD) (CYP2C9): 5.9 | Intramolecular KIE (kH/kD) (CYP2E1): 5.45 (5) | Intramolecular KIE (kH/kD) (CYP1A2 [2]): 5.59 (1)

[2H]C([2H])([2H])c1ccc(Br)cc1 [Br-d3]
V/K (CYP2E1): 0.027 min⁻¹ | Vmax (CYP2E1): 54.8 nM/min

Cc1ccc(Cl)cc1 [Cl, p-chlorotoluene]
Intermolecular Competitive ^D(V/K) (CYP2B1): 3.21 ± 0.02 | Intramolecular KIE (kH/kD) (CYP2B1): 8.1 and 8.06 ± 0.12 | Intramolecular KIE (kH/kD) (P450cam): 6.5 | Intramolecular KIE (kH/kD) (CYP2C9; human, pH 7.4): 6.2 | Intermolecular Noncompetitive ^DV (CYP2E1; pH 7.4): 1.61 ± 0.01

Cc1ccc(Br)cc1 [Br, p-bromotoluene]
Intramolecular KIE (kH/kD) (CYP2B1): 8.02 | Intramolecular KIE (kH/kD) (P450cam): 8.3 | Intramolecular KIE (kH/kD) (CYP2C9; human, pH 7.4): 6.9 | Intermolecular Noncompetitive ^DV (CYP2E1; pH 7.4): 1.07 ± 0.04 | Intramolecular KIE (kH/kD) (CYP1A2 [2]; pH 7.4): 6.83 (8)

COc1ccccc1 [Anisole]
Experimental Ratio (CYP [3]; human): 10.6 | Relative difference in energy for p-hydroxylation and demethylation (CYP [1]; calculated from the product ratios of Lindsay Smith et al.): 0.6 kcal/mol | Intermolecular isotope effect (Lindsay Smith et al.) (CYP [1]; deuteration of the methyl group): 7 | Ratio of p-hydroxyanisole to phenol, average (CYP [1]; four microsomal systems (Lindsay Smith)): 2.9

[2H]C([2H])([2H])Oc1ccc(C)cc1 [p-Methylanisole-α-^2H3]
nmol p-CR (CYP2B1): 3.3* nmol | nmol p-MBA (CYP2B1): 0.9* nmol | nmol total TP (CYP2B1): 4.2* nmol | nmol p-CR (CYP2B6): 9* nmol | nmol p-MBA (CYP2B6): 2.39* nmol | nmol total TP (CYP2B6): 11 nmol | Vmax (CYP2E1): 18.0 nM/min | nmol p-CR (CYP2E1): 18.2* nmol | nmol p-MBA (CYP2E1): 10.6* nmol | nmol total TP (CYP2E1): 29 nmol | nmol p-CR (CYP4B1): 52* nmol | nmol p-MBA (CYP4B1): 48* nmol | nmol total TP (CYP4B1): 100* nmol

CCc1ccccc1 [Ethylbenzene]
Experimental Ratio (CYP [3]; Arom/benz): 0.086

CCOc1ccc2ccc(=O)oc2c1 [7-ethoxycoumarin]
Energy difference between O-deethylation and aromatic hydroxylation pathways (CYP1A2 [4]): about 1.8 kcal/mol

CCCCCCCC [Octane]
ΔΔG (experimental) (CYP [5]): −3.13 | Average P value (primary KIE) (CYP [1]; Jones et al. 1987): 7.6

[2H]C([2H])([2H])c1ccccc1OC [o-Methylanisole-α-^2H3]
nmol 4M3MPh (CYP2B1): 13* nmol | nmol TP (CYP2B1): 17* nmol | nmol o-CR (CYP2B1): 2.8* nmol | nmol o-MBA (CYP2B1): 0.36* nmol | nmol 4M3MPh (CYP2B6): 3.3 nmol | nmol TP (CYP2B6): 22 nmol | nmol o-CR (CYP2B6): 17* nmol | nmol o-MBA (CYP2B6): 0.95* nmol | nmol TP (CYP2C9): 3.9* nmol | nmol o-CR (CYP2C9): 1.4* nmol | nmol o-MBA (CYP2C9): 0.7* nmol | nmol 4M3MPh (CYP2E1): 13* nmol | nmol TP (CYP2E1): 19* nmol | nmol o-CR (CYP2E1): 4.7* nmol | nmol o-MBA (CYP2E1): 0.99* nmol | nmol 4M3MPh (CYP1A2 [2]): 11.5* nmol | nmol TP (CYP1A2 [2]): 17.2 nmol | nmol o-CR (CYP1A2 [2]): 4.2* nmol | nmol o-MBA (CYP1A2 [2]): 1.52* nmol | nmol 4M3MPh (CYP4B1): 1.9* nmol | nmol TP (CYP4B1): 55 nmol | nmol o-CR (CYP4B1): 50* nmol | nmol o-MBA (CYP4B1): 3.5* nmol

CCCC(CCC)C(=O)O [Valproate]
ΔΔG (experimental) (CYP [5]): −2.48

Cc1ccc(C#N)cc1 [CN, p-tolunitrile]
Intramolecular KIE (kH/kD) (CYP2B1): 11.9 | Intramolecular KIE (kH/kD) (P450cam): 11.6 | Intramolecular KIE (kH/kD) (CYP2C9; human, pH 7.4): 11.1 | Intramolecular KIE (kH/kD) (CYP2E1; pH 7.4): 10.1 (1) | Intramolecular KIE (kH/kD) (CYP1A2 [2]; pH 7.4): 10.1 (2)

[2H]C([2H])([2H])c1ccc(Cl)cc1 [Cl-d3]
V/K (CYP2E1): 0.020 min⁻¹ | Vmax (CYP2E1): 31.4 nM/min

Cc1ccccc1 [H, toluene]
Intramolecular KIE (kH/kD) (CYP2B1): 7 | Intramolecular KIE (kH/kD) (CYP2E1; pH 7.4): 6.1 (1) | Intramolecular KIE (kH/kD) (CYP1A2 [2]; pH 7.4): 6.1 (4) | Isotope effect measured by White and McCarthy (CYP [1]): 2
